Values of other authors in patent US20060153940A1, “Use of physiologically active fatty acids” (priority 2004, published 2006).

β-escin
solubility in alcohol (alcohol): can be dissolved in alcohol
solubility in water (water): practically water-insoluble
